Data: PubChem BioAssay (NCI)
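Interpolation was linear, between the two tested concentrations surrounding the appropriate level; five concentrations were tested over 48 hours in 96-well plates. The concentration for full growth arrest is given as TGI.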 Where a SMILES comes first, the peptide text is derived from it. [ ]: non-standard residue; d: D form. The star is where a group is joined. Phe(4-NO2) = N[CH](Cc1ccc([N+](=O)[O-])cc1)C(=O)O; Cbz = O=C(OCc1ccccc1)*

How the values were obtained:
Assay in all cases: NCI-60 cell line screen, 48 h
COLO 205 colon = test system: COLO 205 colon
SK-MEL-5 melanoma = test system: SK-MEL-5 melanoma
U251 CNS = test system: U251 CNS
ACHN renal = test system: ACHN renal
SK-MEL-2 melanoma = test system: SK-MEL-2 melanoma
T-47D breast = test system: T-47D breast
SF-539 CNS = test system: SF-539 CNS
HS 578T breast = test system: HS 578T breast
UO-31 renal = test system: UO-31 renal
NCI-H226 lung = test system: NCI-H226 lung
CAKI-1 renal = test system: CAKI-1 renal
MDA-MB-231 breast = test system: MDA-MB-231 breast
TK-10 renal = test system: TK-10 renal
NCI-H23 lung = test system: NCI-H23 lung
EKVX NSCLC = test system: EKVX NSCLC
786-0 renal = test system: 786-0 renal
SK-OV-3 ovarian = test system: SK-OV-3 ovarian
A498 renal = test system: A498 renal

## COc1cccc(C(=O)Nc2c3ccccc3nc3ccccc23)c1OC
COLO 205 colon
  TGI: > 100 µM
SK-MEL-5 melanoma
  TGI: > 100 µM
U251 CNS
  TGI: > 100 µM
ACHN renal
  TGI: > 100 µM
SK-MEL-2 melanoma
  TGI: > 100 µM
T-47D breast
  TGI: > 100 µM
SF-539 CNS
  TGI: > 100 µM
HS 578T breast
  TGI: > 100 µM
UO-31 renal
  TGI: 14.7 µM
NCI-H226 lung
  TGI: > 100 µM
CAKI-1 renal
  TGI: > 100 µM
MDA-MB-231 breast
  TGI: > 100 µM
TK-10 renal
  TGI: > 100 µM
NCI-H23 lung
  TGI: > 100 µM
EKVX NSCLC
  TGI: > 100 µM
786-0 renal
  TGI: > 100 µM
SK-OV-3 ovarian
  TGI: > 100 µM

## CC1=[N+]([O-])C(C)(C)N(N=O)C1(C)C
COLO 205 colon
  TGI: > 10 µM
U251 CNS
  TGI: > 10 µM
ACHN renal
  TGI: > 10 µM
SK-MEL-2 melanoma
  TGI: > 10 µM
T-47D breast
  TGI: > 10 µM
UO-31 renal
  TGI: > 10 µM
NCI-H226 lung
  TGI: > 10 µM
CAKI-1 renal
  TGI: > 10 µM
MDA-MB-231 breast
  TGI: > 10 µM
TK-10 renal
  TGI: > 10 µM
NCI-H23 lung
  TGI: > 10 µM
EKVX NSCLC
  TGI: > 10 µM
786-0 renal
  TGI: > 10 µM

## Oc1cccc(-c2ccc3c4c2O[C@H]2c5[nH]c6ccccc6c5C[C@@]5(O)[C@@H](C3)N(CC3CC3)CC[C@]425)c1
COLO 205 colon
  TGI: 5.92 µM
SK-MEL-5 melanoma
  TGI: 10.3 µM
ACHN renal
  TGI: 3.67 µM
SK-MEL-2 melanoma
  TGI: 5.13 µM
SF-539 CNS
  TGI: 3.14 µM
HS 578T breast
  TGI: 3.55 µM
UO-31 renal
  TGI: 3.03 µM
NCI-H226 lung
  TGI: 28.9 µM
CAKI-1 renal
  TGI: 3.41 µM
MDA-MB-231 breast
  TGI: 4.03 µM
TK-10 renal
  TGI: 4.34 µM
NCI-H23 lung
  TGI: 5.17 µM
EKVX NSCLC
  TGI: 29.7 µM
786-0 renal
  TGI: 2.97 µM

## N#CC1(C#N)NC(c2cccnc2)C(C#N)(C#N)NC1c1cccnc1 (centres undefined)
COLO 205 colon
  TGI: > 100 µM
SK-MEL-5 melanoma
  TGI: > 100 µM
U251 CNS
  TGI: > 100 µM
SK-MEL-2 melanoma
  TGI: > 100 µM
T-47D breast
  TGI: > 100 µM
SF-539 CNS
  TGI: > 100 µM
NCI-H226 lung
  TGI: > 100 µM
CAKI-1 renal
  TGI: > 100 µM
A498 renal
  TGI: > 100 µM
MDA-MB-231 breast
  TGI: > 100 µM
TK-10 renal
  TGI: > 100 µM
NCI-H23 lung
  TGI: > 100 µM
EKVX NSCLC
  TGI: > 100 µM
786-0 renal
  TGI: > 100 µM
SK-OV-3 ovarian
  TGI: > 100 µM

## CC1=C(C#N)C23C(=O)c4ccccc4C(O)=C2C(=O)C=CC3(O)N1 (centres undefined)
COLO 205 colon
  TGI: > 100 µM
SK-MEL-5 melanoma
  TGI: 2.75 µM
U251 CNS
  TGI: > 100 µM
ACHN renal
  TGI: 19.9 µM
SK-MEL-2 melanoma
  TGI: 22.5 µM
T-47D breast
  TGI: > 100 µM
SF-539 CNS
  TGI: 8.83 µM
UO-31 renal
  TGI: 7.55 µM
NCI-H226 lung
  TGI: 32 µM
CAKI-1 renal
  TGI: 23.3 µM
A498 renal
  TGI: 37.6 µM
MDA-MB-231 breast
  TGI: 43.5 µM
TK-10 renal
  TGI: 35.7 µM
NCI-H23 lung
  TGI: 31.9 µM
EKVX NSCLC
  TGI: > 100 µM
786-0 renal
  TGI: 28.1 µM
SK-OV-3 ovarian
  TGI: > 100 µM

## COc1ccc(N=Nc2c(C)c(C#N)c(=S)n(C3OC(COC(C)=O)C(OC(C)=O)C(OC(C)=O)C3OC(C)=O)c2C)cc1 (centres undefined)
COLO 205 colon
  TGI: > 100 µM
SK-MEL-5 melanoma
  TGI: > 100 µM
ACHN renal
  TGI: > 100 µM
T-47D breast
  TGI: > 100 µM
SF-539 CNS
  TGI: > 100 µM
HS 578T breast
  TGI: 82 µM
UO-31 renal
  TGI: > 100 µM
CAKI-1 renal
  TGI: > 100 µM
MDA-MB-231 breast
  TGI: 71 µM
TK-10 renal
  TGI: > 100 µM
NCI-H23 lung
  TGI: > 100 µM
786-0 renal
  TGI: 53 µM
SK-OV-3 ovarian
  TGI: > 100 µM

## CCOC(=O)CCC(NC(=O)OCc1ccccc1)C(=O)NC(CCC(=O)OCC)C(=O)NC(Cc1ccc([N+](=O)[O-])cc1)C(=O)NC(CCC(=O)OCC)C(=O)NC(CCC(=O)OCC)C(=O)OCC (centres undefined) (Cbz-E(OEt)E(OEt)[Phe(4-NO2)]E(OEt)E(OEt)-OEt; configuration not given here)
COLO 205 colon
  TGI: > 100 µM
SK-MEL-5 melanoma
  TGI: > 100 µM
U251 CNS
  TGI: > 100 µM
ACHN renal
  TGI: > 100 µM
SK-MEL-2 melanoma
  TGI: > 100 µM
T-47D breast
  TGI: > 100 µM
HS 578T breast
  TGI: > 100 µM
UO-31 renal
  TGI: > 100 µM
CAKI-1 renal
  TGI: > 100 µM
MDA-MB-231 breast
  TGI: > 100 µM
TK-10 renal
  TGI: > 100 µM
NCI-H23 lung
  TGI: > 100 µM
EKVX NSCLC
  TGI: > 100 µM
786-0 renal
  TGI: > 100 µM
SK-OV-3 ovarian
  TGI: > 100 µM
